# According to PMC7337048 (Journal of Structural Biology: X, 2019):
# Values joined by “and” are separate entries in the source; they are usually repeats but may differ in a detail not shown here. Identical values can stand only once. Like-named read-outs stand apart in the source and are kept apart here.
# Columns and labels:
# [1] = molecular target: T1, human Arginase-1 (Homo sapiens, UniProt P05089); assay: Arginase-1 colorimetric urea assay (inhibition); assay type: biochemical; settings: for IC50: read-out: IC50 (nM) (95% CI); for Ki: Cheng-Prusoff equation, read-out: Ki (nM) (95% CI)
# T1 sequence (P05089 1-322): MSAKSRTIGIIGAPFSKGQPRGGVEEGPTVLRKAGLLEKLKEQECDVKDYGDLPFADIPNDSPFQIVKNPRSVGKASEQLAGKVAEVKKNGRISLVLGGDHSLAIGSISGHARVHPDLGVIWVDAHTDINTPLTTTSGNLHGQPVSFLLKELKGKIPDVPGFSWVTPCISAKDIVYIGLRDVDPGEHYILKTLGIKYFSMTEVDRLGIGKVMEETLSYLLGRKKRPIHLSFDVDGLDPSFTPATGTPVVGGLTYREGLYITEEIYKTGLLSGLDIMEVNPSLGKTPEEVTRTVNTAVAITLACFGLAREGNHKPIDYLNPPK
# Method: Arginase-1 activity was monitored by measurement of the rate of urea formation in a classic colorimetric assay ([Jung et al., 1975], [Zawada et al., 2009]). […] Compounds were either dissolved and diluted in DMSO, followed by further dilution in reaction buffer, or dissolved in MilliQ water (MQ) and diluted in reaction buffer to the desired concentrations. […] The enzymatic reaction was stopped by addition of 30 μL of the reagent A + B mixture. […] The reported values were measured in quadruplicate in four independent experiments. Dose-response curves were fitted with a four-parameter logistic regression using XLFit (IDBS, Guildford, UK) to determine IC50 values. Graphs for the manuscript were prepared using Prism (GraphPad Software, San Diego, CA).
# [2] = molecular target: T1, human Arginase-1; assay: Thermal shift assay; assay type: binding; settings: 50 μM inhibitor
# Method: In a 96-well PCR plate (cat no. 652260; Greiner), 10 μL of the enzyme solution was mixed with 5 μL of 200 μM compound dissolved in MQ. […] The plate was sealed with Microseal B Adhesive Sealer (cat. no. MSB1001; Bio-Rad, Hercules, CA) and placed in a CFX96 Real-Time Detection System (Bio-Rad). The temperature was increased from 20 to 95 °C in increments of 0.5 °C during which the SYPRO Orange fluorescence was measured. The resulting datasets were first truncated to contain only the data points that lie between the minimal and maximal fluorescence signals. The remaining data were then fitted to the sigmoidal five-parameter equation (Eq. (2)) ([Schulz et al., 2013]), in which Fmin and Fmax are respectively the minimum and maximum fluorescent signals of the melting transition, T is the temperature, a is the hill slope and c is the asymmetric factor. The melting temperature was then determined as the point of inflection of the melting curve (Eq. […] The reported values were measured in quadruplicate in four independent experiments.(2) […]
# [3] = molecular target: T1, human Arginase-1; assay: Surface plasmon resonance binding kinetics; settings: for τ (target residence time): τ = 1/kd
# Method: Binding kinetics of the inhibitors were determined by SPR using a Biacore T200 (GE Healthcare). […] The inhibitors were diluted in running buffer from a stock solution in MQ and were injected in an increasing concentration range of 0.1, 0.316, 1, 3.16 and 10 µM. […] The compound response was subtracted with both the reference channel response and the blank injection.
# [4] = molecular target: T1, human Arginase-1; settings: Enzyme assay at pH 7.4; racemic ABH assumed; ref Golebiowski et al., 2013, Van Zandt et al., 2013, Golebiowski et al., 2013, Van Zandt et al., 2019; cited from earlier work
# [5] = molecular target: Human Arginase-2; settings: cited from earlier work; for IC50: Enzyme assay at pH 7.4
# [6] = molecular target: T1, human Arginase-1; assay: Apparent Michaelis-Menten parameters, colorimetric urea assay; assay type: biochemical; settings: substrate; for Km: read-out: Michaelis constant (KM)
# Method: Arginase-1 activity was monitored by measurement of the rate of urea formation in a classic colorimetric assay ([Jung et al., 1975], [Zawada et al., 2009]). All components of the assay were diluted in Arginase reaction buffer 1 (8 mM Na2HPO4, 2 mM KH2PO4, pH 7.4, 137 mM NaCl, 2.7 mM KCl, and 0.05% Tween-20) or Arginase reaction buffer 2 (10 mM glycine, pH 9.5, 137 mM NaCl, 2.7 mM KCl, and 0.05% Tween-20). Compounds were either dissolved and diluted in DMSO, followed by further dilution in reaction buffer, or dissolved in MilliQ water (MQ) and diluted in reaction buffer to the desired concentrations. In a clear 384-well plate (cat. no. 781101; Greiner), 10 µL diluted compound and 10 µL of 3 nM (pH 9.5) or 15 nM (pH 7.4) Arginase-1 were combined and incubated for 90 min at room temperature. Then, 10 µL of 15 mM (pH 9.5) or 7.5 mM (pH 7.4) L-arginine (cat. no. 105000250; Acros Organics) was added to the plate, followed by incubation for 30 min. A 1:1 mixture of reagent A (10 mM o-phthaldialdehyde, 0.4% polyoxyethylene (23) lauryl ether (w/v) and 1.8 M sulfuric acid) and reagent B (1.3 mM primaquine diphosphate, 0.4% polyoxyethylene (23) lauryl ether (w/v), 130 mM boric acid and 3.6 M sulfuric acid) was prepared. The enzymatic reaction was stopped by addition of 30 μL of the reagent A + B mixture. After incubation with the reagent mixture for 60 min (pH 9.5) or 120 min (pH 7.4), the absorbance was measured at 450 nm using the EnVision 2104 Multilabel Plate Reader (PerkinElmer, Waltham, MA) (excitation filter P450). The final concentrations of Arginase-1 and L-arginine in the assay were respectively 1 nM and 5 mM at pH 9.5, and 5 nM and 2.5 mM at pH 7.4.
# [7] = tested on: Arginase-1; parameters: method as in Stone et al., 2010, Alarcón et al., 2006, Tsui et al., 2009; settings: differences in pH and temperature; ref Stone et al., 2010, Alarcón et al., 2006, Tsui et al., 2009; cited from earlier work
# [8] = Enzyme assay at pH 7.5, ref Colleluori and Ash, 2001
compound,measurement,setting,value
"N[C@@H](CCCCB(O)O)C(=O)O [ABH, (2S)-2-amino-6-boronohexanoic acid]",IC50,"[1]; pH 7.4, 5 nM Arginase-1, 2.5 mM L-arginine",184 nM
same,Ki,[1]; pH 7.4,88 nM
same,decrease in the Ki on increase of the pH from 7.4 to 9.5,[1]; pH 7.4 versus pH 9.5,8 fold
same,IC50,"[1]; pH 9.5, 1 nM Arginase-1, 5 mM L-arginine",22 nM
same,Ki,[1]; pH 9.5,11 nM
same,Tm,[2]; pH 7.4,77.4 °C
same,ΔTm at 50 µM,[2]; pH 7.4,4.5 °C
same,Tm,[2]; pH 9.5,80.9 °C
same,ΔTm at 50 µM,[2]; pH 9.5,3.5 °C
same,Kd,[3]; pH 7.4,797 nM
same,ka,[3]; pH 7.4,12000 M⁻¹ s⁻¹
same,kd,[3]; pH 7.4,0.0099 s⁻¹
same,log(ka),[3]; pH 7.4,4.09
same,log(kd),[3]; pH 7.4,−2.00
same,τ (target residence time),[3]; pH 7.4,100 s
same,Kd,[3]; pH 9.5,27 nM
same,ka,[3]; pH 9.5,5100 M⁻¹ s⁻¹
same,kd,[3]; pH 9.5,0.00014 s⁻¹
same,log(ka),[3]; pH 9.5,3.71
same,log(kd),[3]; pH 9.5,−3.86
same,τ (target residence time),[3]; pH 9.5,7200 s
same,IC50,[4],1450 to 1550 nM
same,IC50,"[5]; racemic ABH assumed, ref Golebiowski et al., 2013, Van Zandt et al., 2013, Golebiowski et al., 2013, Van Zandt et al., 2019",1920 to 2550 nM
same,Ki,[5]; [8],250 nM
same,Ki,"[5]; Enzyme assay at pH 9.5, ref Colleluori and Ash, 2001",8.5 nM
same,potency lower at pH 7.5 compared to pH 9.5,"[5]; pH 7.5 versus pH 9.5, ref Colleluori and Ash, 2001",~30 times
"N=C(NO)NCC[C@H](N)C(=O)O [nor-NOHA, N^ω-hydroxy-nor-L-arginine]",ΔTm at 50 µM,[2]; pH 7.4,4.8 °C
same,ΔTm at 50 µM,[2]; pH 9.5,4.7 °C
same,IC50,"[5]; ref Van Zandt et al., 2019",1260 nM
same,Ki,[5]; [8],51 nM
N=C(N)NCCC[C@H](N)C(=O)O [L-arginine],catalytic rate constant (kcat),[6]; pH 7.4,57 s⁻¹
same,Km,[6]; pH 7.4,2300 µM
same,catalytic rate constant (kcat),[6]; pH 9.5,460 s⁻¹
same,Km,[6]; pH 9.5,4900 µM
same,Km,[7],1900 µM and 2300 µM and 1500 µM
same,kcat,[7],300 s⁻¹ and 190 s⁻¹
"C[C@H](N)C(=O)N1C[C@H](CCCB(O)O)[C@](N)(C(=O)O)C1 [CB-1158, (3R,4S)-3-amino-1-[(2S)-2-aminopropanoyl]-4-(3-boronopropyl)pyrrolidine-3-carboxylic acid]",IC50,"[5]; ref Oberlies et al., 2009",296 nM
